According to patent publication US20090215725A1, “Substituted 4-aminocyclohexane derivatives” (GRUNENTHAL GMBH, priority 2008, published 2009):

Test system: Male Sprague Dawley rats
Test: Chung model: mononeuropathic pain after spinal nerve ligation (mechanical allodynia, von Frey withdrawal threshold)
Type: in vivo
Settings: rat, FIG. 1

CN(C)C1(c2ccccc2)CCC(COCc2c[nH]c3ccc(F)cc23)CC1 (stereo not drawn) [Example 10, 1-Phenyl-4-(((5-fluoro-1H-indol-3-yl)methoxy)methyl)-N,N-dimethylcyclohexanamine]
effect on the undamaged, contralateral side (contralateral rear paw, tested dose): only a very small and statistically insignificant effect | rise in the withdrawal threshold (ipsilateral rear paw, spinal nerve ligation, allodynia fall from approx. 55 g to 25 g): over 40 g | allodynia condition (effectiveness in neuropathic pain) (ipsilateral side, spinal nerve ligation): almost completely relieved
